Like-named read-outs stand apart in the source and are kept apart here.

Here are results for ten compounds from US9580390B2, “Indazole compounds as kinase inhibitors and method of treating cancer with same” (University Health Network, priority 2011, dated 2017).

Experiment [1] has as its system colon cancer cells (HCT116). The experiment in a line: Cancer cell line growth inhibition (SRB assay). The class given is cell-based. The following applies: Homo sapiens, HCT-116, read-out: Cancer Cell Line GI50 Range HCT116.
The target in experiment [2] is T1, human TTK (Homo sapiens, UniProt P33981).
T1 construct: amino terminal GST fusion of full length human TTK; purchased Invitrogen
T1 sequence (P33981 1-857): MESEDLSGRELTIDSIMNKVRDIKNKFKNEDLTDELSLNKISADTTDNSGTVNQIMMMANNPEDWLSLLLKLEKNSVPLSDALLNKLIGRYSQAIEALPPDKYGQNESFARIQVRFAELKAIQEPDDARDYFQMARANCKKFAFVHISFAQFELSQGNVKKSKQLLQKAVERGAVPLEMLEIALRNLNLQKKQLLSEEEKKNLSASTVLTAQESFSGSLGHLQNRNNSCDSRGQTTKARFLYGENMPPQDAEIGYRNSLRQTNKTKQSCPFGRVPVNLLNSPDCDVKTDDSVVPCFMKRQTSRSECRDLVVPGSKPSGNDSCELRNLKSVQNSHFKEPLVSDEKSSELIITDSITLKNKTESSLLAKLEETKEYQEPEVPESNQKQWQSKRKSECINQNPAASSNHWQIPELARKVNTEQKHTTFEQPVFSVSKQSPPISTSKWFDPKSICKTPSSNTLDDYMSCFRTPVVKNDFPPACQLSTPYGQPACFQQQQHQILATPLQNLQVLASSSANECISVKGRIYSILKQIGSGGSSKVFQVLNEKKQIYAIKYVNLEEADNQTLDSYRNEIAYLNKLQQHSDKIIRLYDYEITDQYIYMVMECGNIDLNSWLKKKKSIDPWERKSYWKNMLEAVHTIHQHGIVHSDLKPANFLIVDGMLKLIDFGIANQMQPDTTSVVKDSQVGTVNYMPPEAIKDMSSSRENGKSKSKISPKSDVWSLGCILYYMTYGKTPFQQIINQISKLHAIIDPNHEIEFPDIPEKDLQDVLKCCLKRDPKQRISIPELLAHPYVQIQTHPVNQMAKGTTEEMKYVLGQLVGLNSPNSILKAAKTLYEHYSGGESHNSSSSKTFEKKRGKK
Put plainly: TTK inhibition assay (indirect ELISA). The note with it: read-out: TTK IC50 Range. The class given is biochemical.
Experimental: Active TTK was purchased from Invitrogen as an amino terminal GST fusion of full length human TTK. Amino terminal 6 histidine, sumo tagged human TTK (residues 1-275) was expressed in E. coli, and purified to >95% homogeneity by Ni^2+ agarose, gel filtration, and ion exchange chromatography.
TTK activity was measured using an indirect ELISA detection system. GST-TTK (0.68 nM) was incubated in the presence of 16 μM ATP (Sigma cat# A7699), 50 mM Hepes pH 7.2, 1 mM EGTA, 10 mM MgCl2, and 0.1% Pluronic in a 96 well microtitre plate pre-coated with amino terminal 6 histidine, sumo tagged TTK (amino acid residues 1-275). The reaction was allowed to proceed for 30 minutes, followed by 5 washes of the plate with Wash Buffer (phosphate buffered saline supplemented with 0.2% Tween 20), and incubation for 30 minutes with a 1:3000 dilution of primary antibody (Cell Signaling cat# 9381). The plate was washed 5 times with Wash Buffer, incubated for 30 minutes in the presence of secondary antibody coupled to horse radish peroxidase (BioRad cat# 1721019, 1:3000 concentration), washed an additional 5 times with Wash Buffer, and incubated in the presence of TMB substrate (Sigma cat# T0440). The colourimetric reaction was allowed to continue for 5 minutes, followed by addition of stop solution (0.5 N sulphuric acid), and quantified by detection at 450 nm with either a monochromatic or filter based plate reader (Molecular Devices M5 or Beckman DTX880, respectively).
Compounds were pre-incubated in the presence of enzyme for 5 minutes prior to addition of ATP and the activity remaining quantified using the above described activity assay. The % Inhibition of a compound was determined using the following formula: % Inhibition=100×(1−(experimental value−background value)/(high activity control−background value)). The IC50 value was determined using a non-linear 4 point logistic curve fit (XLfit4, IDBS) with the formula: (A+(B/(1+((x/C)^D)))), where A=background value, B=range, C=inflection point, D=curve fit parameter.

Experiment [3] deals with ovarian cancer cells (PA-1). The experiment in a line: Cancer cell line growth inhibition (SRB assay). The class given is cell-based. The note with it: read-out: Cancer Cell Line GI50 Range PA-1.
Where [4] appears, read: HCT116 colon cancer cells, SRB assay.
The mark [5] stands for this setting: PA-1 ovarian cancer cells, SRB assay.

Turning to `CN1CCC(Oc2ccc(-c3n[nH]c4ccc(C(=O)NCC5(N6CCOCC6)CCCCCC5)cc34)cc2)CC1` [Example A429, 3-(4-((1-methylpiperidin-4-yl)oxy)phenyl)-N-((1-morpholinocycloheptyl)methyl)-1H-indazole-5-carboxamide], the GI50 was less than 100 nM in experiment [1] (setting [4]) and 100 to 500 nM in experiment [3] (setting [5]). In experiment [2], the IC50 was less than 100 nM.

In the case of `CN1C2COCC1CC(Oc1ccc(-c3n[nH]c4ccc(C(=O)NC(c5ccccn5)C5CCCC5)cc34)cc1)C2` [Example A392, N-(cyclopentyl (pyridin-2-yl)methyl)-3-(4-(((1R,5S,7s)-9-methyl-3-oxa-9-azabicyclo [3.3.1]nonan-7-yl)oxy)phenyl)-1H-indazole-5-carboxamide], the GI50 was less than 100 nM in experiment [1] and less than 100 nM in experiment [3] (Homo sapiens, PA-1). Moreover, in experiment [2], the half-maximal inhibitory concentration (IC50) was less than 100 nM.

Take `O=C(NCC1(c2ccccc2)CCCCC1)c1ccc2[nH]nc(-c3ccc(N4CCOCC4)cc3)c2c1` [Example A469, 3-(4-morpholinophenyl)-N-((1-phenylcyclohexyl)methyl)-1H-indazole-5-carboxamide]: the concentration for 50% growth inhibition (GI50) in experiment [1] (setting [4]) and in experiment [3] (setting [5]) was 100 to 500 nM each time. Besides, in experiment [2], the 50% inhibitory concentration (IC50) is less than 100 nM.

As to `CCC(CNC(=O)c1ccc2[nH]nc(-c3ccc(N4CCOCC4)cc3)c2c1)c1ccccc1` (stereo not drawn) [Example A407, 3-(4-morpholinophenyl)-N-(2-phenylbutyl)-1H-indazole-5-carboxamide], the GI50 in experiment [1] was greater than 500 nM; in experiment [3] (Homo sapiens, PA-1), greater than 500 nM. Besides, the IC50 in experiment [2] was less than 100 nM.

As to `O=C(N[C@H](c1ccccc1)C1CC1)c1ccc2[nH]nc(-c3ccc(N4CCN(C5COC5)CC4)cc3)c2c1` [Example A399, (S)-N-(cyclopropyl(phenyl)methyl)-3-(4-(4-(oxetan-3-yl)piperazin-1-yl)phenyl)-1H-indazole-5-carboxamide], the GI50 is less than 100 nM in experiment [1] and 100 to 500 nM in experiment [3] (Homo sapiens, PA-1). The IC50 in experiment [2] is less than 100 nM.

On to `CC(C)CC(NC(=O)c1ccc2[nH]nc(-c3ccc(OC4CCN(C5COC5)CC4)cc3)c2c1)c1ccccc1` (stereo not drawn) [Example A290, N-(3-methyl-1-phenylbutyl)-3-(4-((1-(oxetan-3-yl)piperidin-4-yl)oxy)phenyl)-1H-indazole-5-carboxamide], for which the GI50 in experiment [1] was in the range of 100 to 500 nM; in experiment [3] (Homo sapiens, PA-1) it was 100 to 500 nM. The IC50 in experiment [2] was less than 100 nM.

Turning to `C[C@@H]1CN(c2ccc(-c3n[nH]c4ccc(C(=O)NCC5(N6CCOCC6)CCCCC5)cc34)cc2)C[C@H](C)O1` [Example A454, 3-(4-((2S,6R)-2,6-dimethylmorpholino)phenyl)-N-((1-morpholinocyclohexyl)methyl)-1H-indazole-5-carboxamide], the GI50 in experiment [1] (setting [4]) and in experiment [3] (setting [5]) was 100 to 500 nM throughout. Also, in experiment [2], the IC50 is less than 100 nM.

On to `CCC(CC)(CNC(=O)c1ccc2[nH]nc(-c3ccc(N4CCOCC4)cc3)c2c1)c1ccccc1` [Example A437, N-(2-ethyl-2-phenylbutyl)-3-(4-morpholinophenyl)-1H-indazole-5-carboxamide], for which the GI50 in experiment [1] lay within 100 to 500 nM; in experiment [3] (Homo sapiens, PA-1), 100 to 500 nM. Moreover, in experiment [2], the IC50 was less than 100 nM.

As for `O=C(NC(c1ccccn1)C1CCOCC1)c1ccc2[nH]nc(-c3ccc(OC4CCN(C5COC5)CC4)cc3)c2c1` (stereo not drawn) [Example A293, 3-(4-((1-(oxetan-3-yl)piperidin-4-yl)oxy)phenyl)-N-(pyridin-2-yl(tetrahydro-2H-pyran-4-yl)methyl)-1H-indazole-5-carboxamide], the GI50 in experiment [1] was in the range of 100 to 500 nM; in experiment [3] (Homo sapiens, PA-1), 100 to 500 nM. Moreover, the IC50 in experiment [2] is less than 100 nM.

On to `CN1CCC(Oc2ccc(-c3n[nH]c4ccc(C(=O)NCC5(c6ccccc6)CC5(C)C)cc34)cc2)CC1` (stereo not drawn) [Example A431, N-((2,2-dimethyl-1-phenylcyclopropyl)methyl)-3-(4-((1-methylpiperidin-4-yl)oxy)phenyl)-1H-indazole-5-carboxamide], for which the GI50 in experiment [1] (setting [4]) and in experiment [3] (setting [5]) was 100 to 500 nM each time. For the same compound, the IC50 in experiment [2] was less than 100 nM.
